# Key:
# [1] = tested on: HDFa healthy cell cultures; experiment: Hoechst 33258 fluorescent staining and nuclear abnormality analysis; assay type: cell-based, human; set-up: MN (micronuclei) / Ntc (notched nuclei): unit not given here; details: for Abnormality Numbers/1000 Cells / L (lobed nuclei) / MN (micronuclei) / Ntc (notched nuclei): 24 h; for nuclear anomaly change compared to negative control: Hoechst 33258 staining
# Experimental: (§1) The human dermal fibroblast cell (HDFa, ATCC® PCS-201-012™) culture was grown in the DMEM medium supplemented with 1% penicillin/streptomycin, 10% FBS and 5% CO2 at a 37 °C temperature until the cultures reached 80% confluency. The human neuroblastoma cell (SH-SY5Y, ATCC® CRL-2266™) line was cultured in DMEM/F12 culture media containing 1% penicillin/streptomycin and 10% fetal bovine serum at 37 °C and 5% CO2. Neuroblastoma cell cultures were incubated to grow up to 80% cell density.
# The Hoechst 33258 nuclear staining method was used to monitor abnormalities in the nuclear structures of a healthy HDFa cell culture. Tested drugs were applied to the HDFa cell cultures at various concentrations, and the cell cultures were incubated at 37 °C for 24 h. Then, HDFa cells were fixed by using 4% paraformaldehyde at 4 °C for 30 min. After the incubation period, the cell cultures were washed with PBS two times. A total of 1 µM Hoechst 33258 fluorescent dye was added to the samples and incubated at room temperature for 5 min. Nuclear morphologies were monitored and photographed under a fluorescent microscope (Leica® DM IL LED, Wetzlar, Germany).
# [2] = tested on: SHSY-5Y neuroblastoma cells; experiment: Flow cytometry analysis (FITC Annexin V / PI); assay type: cell-based, human; details: FPV alone 39.06, 19.53, 9.76 µg/mL
# Experimental: as §1
# (§2) Flow cytometry analysis was performed by using the FITC Annexin V/Dead Cell Apoptosis Kit with FITC Annexin V and PI according to the producer’s recommendations. Further, 5 × 10^4 cells were collected by trypsinization and centrifugation. The cells were resuspended in 500 μL of 1× binding buffer and 5 μL of propidium iodide, and the Annexin V-FITC (50 μg/mL) dyes were added to the cultures and incubated in the dark for 5 min. Finally, the cultures were analyzed via the use of flow cytometry (The CyFlow® Cube 6, Norderstedt, Germany).
# [3] = tested on: CYP2C8; set-up: method as in PMID 34339547; details: cited from earlier work
# [4] = tested on: human fibroblast (HDFa) cells; experiment: MTT cell viability assay on human fibroblast (HDFa) cells; assay type: cell-based; details: 24 h, p < 0.05
# Experimental: as §1
# (§3) Cell viability analyses were performed on HDFa and SH-SY5Y by using the 3-(4,5-dimethylthiazol-2-yl)-2,5-diphenyltetrazolium bromide (MTT) technique. Briefly, the compounds were applied to cell cultures at defined concentration intervals (1.65 µg/mL to 100 µg/mL) for 24 h. At the end of the incubation period, 10 µL of the MTT solution ([…]) was added to each culture well, and the samples were incubated at 37 °C for 3 h. Then, the culture mediums were discarded, and 100 µL of DMSO was added to the samples to dissolve formazan crystal to obtain a purple/blue color. A microplate reader was used to measure the color intensities at a 570 nm wavelength.
# [5] = MTT cell viability assay on SH-SY5Y neuroblastoma cells; assay type: cell-based, human; details: human, SH-SY5Y neuroblastoma cells, SHSY-5Y, PTX 10 µg/mL alone
# Experimental: as §1, §3
# [6] = tested on: SHSY-5Y neuroblastoma cells; experiment: as above; assay type: cell-based, human; details: 24 h, p < 0.05
# Experimental: as §1, §3
# [7] = Flow cytometry analysis (FITC Annexin V / PI); assay type: cell-based, human; details: human, SH-SY5Y neuroblastoma cells, SHSY-5Y, PTX 10 µg/mL
# Experimental: as §1, §2
smiles,measurement,setting,value
"NC(=O)c1nc(F)c[nH]c1=O [FPV, Favipiravir]",Abnormality Numbers/1000 Cells,[1]; FPV 9.7 µg/mL,0.020 ± 0.008 a
same,L (lobed nuclei),[1]; FPV 9.7 µg/mL,7
same,MN (micronuclei),[1]; FPV 9.7 µg/mL,8
same,Ntc (notched nuclei),[1]; FPV 9.7 µg/mL,5
same,Abnormality Numbers/1000 Cells,[1]; FPV 19.5 µg/mL,0.019 ± 0.016 a
same,L (lobed nuclei),[1]; FPV 19.5 µg/mL,6
same,MN (micronuclei),[1]; FPV 19.5 µg/mL,6
same,Ntc (notched nuclei),[1]; FPV 19.5 µg/mL,7
same,Abnormality Numbers/1000 Cells,[1]; FPV 39 µg/mL,0.019 ± 0.007 a
same,L (lobed nuclei),[1]; FPV 39 µg/mL,7
same,MN (micronuclei),[1]; FPV 39 µg/mL,7
same,Ntc (notched nuclei),[1]; FPV 39 µg/mL,5
same,nuclear anomaly change compared to negative control,[1],no significant numerical anomaly change
same,change in cell viability,[2],did not cause a significant change in cell viability
same,"IC50, concentration-dependent inhibitory effect on CYP2C8",[3],74.9 µg/mL
"CC(=O)O[C@H]1C(=O)[C@@]2(C)[C@H]([C@H](OC(=O)c3ccccc3)[C@]3(O)C[C@H](OC(=O)[C@H](O)[C@@H](NC(=O)c4ccccc4)c4ccccc4)C(C)=C1C3(C)C)[C@]1(OC(C)=O)CO[C@@H]1C[C@@H]2O [PTX, Paclitaxel]",concentrations causing a significant cytotoxic / viability-reducing effect,[4],10000 ng/mL
same,"viability at 24 h, 10 µg/mL",[5],37%
same,concentrations causing a significant decrease in cell viability (cytotoxic effect),[6],≥ 312.5 ng/mL
same,nuclear anomaly change compared to negative control,[1],no significant numerical anomaly change
same,Abnormality Numbers/1000 Cells,[1]; PTX 10 µg/mL,0.019 ± 0.013 a
same,L (lobed nuclei),[1]; PTX 10 µg/mL,5
same,MN (micronuclei),[1]; PTX 10 µg/mL,8
same,Ntc (notched nuclei),[1]; PTX 10 µg/mL,6
same,viability at 10 µg/mL,[7],~37%

# Source: article PMC10820816, “Drug Synergism of Anticancer Action in Combination with Favipiravir and Paclitaxel on Neuroblastoma Cells” (Medicina, 2023)
